According to US11331312B2, “Treatment of H-Ras-driven tumors” (MEMORIAL SLOAN-KETTERING CANCER CENTER, priority 2014, dated 2022):
“Also recorded” adds a separate entry of the source.

Assays:
[1] = system: Hras-G12V+/+/p53-null thyroid cancers; test: 2-week FTI treatment of mice with thyroid cancers, tumor volume by 3D ultrasound; assay type: in vivo, mouse; conditions: 80 mg/kg twice daily by gavage, 2 weeks (14 days)
Procedure: FIG. 3 is a schematic showing the design of the in vivo study of tipifarnib in Tpo-Cre/FR-Hras^G12V/p53^flox/flox mice. Mice were treated for 14 days with tipifarnib 80 mg/kg BID by gavage. Tipifarnib was prepared in 20% beta-cyclodextran. 3D ultrasound was performed before and after treatment to assess percent change in tumor volume.
Tumors in each treatment group were sized matched at the beginning of therapy.
FIG. 5 is a waterfall plot of the same mice but with an additional cohort of mice treated with lonafarnib added. Of note the lonafarnib treated mice were not size matched to the vehicle group.
(§1) The activity of these compounds in vivo was explored. Mice were treated for 2 weeks with tipifarnib or lonafarnib at 80 mg/kg twice daily (drug mixed in 20% beta-cyclodextran and given by gavage). […] Treatment with FTIs was well tolerated in the mice with no significant differences in animal weight between vehicle and drug at 14 days (FIG. 6). Next mice were treated with Tipifarnib or vehicle for an extended time course. Of note, for this experiment tumors in each group were size-matched at the time of treatment initiation (FIG. 8).

[2] = system: HP-ATC1 cells; test: 6 day proliferation assay in HP-ATC1 mouse cell line; assay type: cell-based; conditions: 1.5% serum, 6 day assay, increasing concentrations of drug
Procedure: (§2) FIGS. 2A and B show the results of exposure of mouse cell lines from tumor bearing Tpo-Cre/FR-HrasG12V/p53flox/flox mice to farnesyltransferase inhibitors. Mouse cell lines were generated from tumor bearing Tpo-Cre/FR-HrasG12V/p53flox/flox mice by collagenase/dispase digestion and maintained in Coon's F-12 media with serum. After 15 passages, cells were plated in 1.5% serum and exposed to increasing concentrations of indicated drug. (A) Western blots were performed for indicated proteins (antibodies from Cell Signaling with exception of Hras which was from Santa Cruz).
(§3) Development and characterization of mouse cell lines from TPO-Cre, Hras-G12V+/+, p53f/f mice: In order to study this model in vitro, we developed a mouse cell line (HP-ATC1) from an animal with ATC. The cell line was confirmed to harbor the HrasG12V mutation, and maintained primary tumor characteristics, including its spindle shape and the relative expression of E-cadherin and vimentin through serial passaging (x6-10).
(§4) The FTIs Tipifarnib and Lonafarnib block MAPK signaling and growth of mouse Tpo-Cre, HRas-G12V+/+, p53f/f cell line: There are currently no therapies that directly target oncogenic forms of oncogenic Ras.
(§5) Mouse cell lines were generated from tumor bearing Tpo-Cre/FR-HrasG12V/p53flox/flox mice by collagenase/dispase digestion and maintained in Coon's F-12 media with serum. […]

[3] = system: MAPK pathway signaling effectors; test: Western blots of MAPK pathway signaling effectors in HP-ATC1 mouse cell line; assay type: cell-based; conditions: HP-ATC1 cells, 1.5% serum, increasing concentrations of drug, Western blot
Procedure: as §2, §3, §4, §5

[4] = Body weight and tolerability of treated mice; assay type: in vivo, mouse; conditions: 80 mg/kg BID
Procedure: as §1

Row | Compound | change in thyroid tumor volume (ultrasound) compared to vehicle-treated mice [1] | inhibition of proliferation [2] | inhibition of MAPK effector phosphorylation [3] | animal weight, drug vs vehicle ([4]; 14 days) | toxicity / tolerability ([4]; two weeks of treatment)
1 | NC(=O)N1CCC(CC(=O)N2CCC([C@H]3c4ncc(Br)cc4CCc4cc(Cl)cc(Br)c43)CC2)CC1 [lonafarnib] | Consistent inhibition of growth; also recorded: Significant reduction in thyroid tumor volume | dose-dependent inhibition of proliferation | dose-dependent inhibition | – | –
2 | Cn1cncc1[C@@](N)(c1ccc(Cl)cc1)c1ccc2c(c1)c(-c1cccc(Cl)c1)cc(=O)n2C [tipifarnib] | – | – | – | No differences | minimal toxicity
